Test results as given in US20230295157A1, “3-(1H-IMIDAZOL-2-YL)-2,3,8,8A-TETRAHYDROINDOLIZIN-5(1H)-ONE DERIVATIVES USEFUL AS FACTOR XIA INHIBITORS” (JANSSEN PHARMACEUTICA NV, priority 2020, published 2023).
Read-outs that look alike come from different tables or passages of the source.

Key:
[1] = target: Factor XIa (Homo sapiens (Human), UniProt P03951); assay: Factor XIa inhibition assay (FLINT) utilizing a fluorophore-quencher pair peptide substrate; format: biochemical; conditions: 30 min preincubation, kinetic reads over 30 min, read-out: FXIa Kin Inh IC50
Method in brief: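 FXIa ([…]) preincubated 30 min with compound (11-point 3-fold dilution, top 100 nM, 2% DMSO), then 15 μM quenched FXI Arg146-based peptide added; Tris pH 7.5, CaCl2, BSA, CHAPS. Fluorescence 485/520 nm read kinetically every 5 min over 30 min at RT; IC50 by 4-parameter fit.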

[2] = target: human plasma kallikrein (Homo sapiens (Human), UniProt P03952); assay: Kallikrein inhibition assay (FLINT) utilizing a quenched AMC peptide substrate; format: biochemical; conditions: 30 min preincubation, read-out: Kallikrein Kin Inh IC50
Method in brief: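 Enzyme (2 nM final) pre-incubated 30 min at room temperature with compound (11-point, 3-fold, top 1 μM, 2% DMSO), then 50 μM Z-Gly-Pro-Arg-AMC added in Tris pH 7.5 buffer. Kinetic fluorescence 340/440 nm every 5 min over 30 min; IC50 from 4-parameter logistic fit.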

[3] = 5Fam-KLTRAETV-K5Tamra substrate 15 μM
[4] = kinetic reads over 30 min, Z-Gly-Pro-Arg-AMC substrate 50 μM
[5] = 5Fam-[…]-K5Tamra substrate 15 μM

Sequence of Factor XIa (P03951 388-625): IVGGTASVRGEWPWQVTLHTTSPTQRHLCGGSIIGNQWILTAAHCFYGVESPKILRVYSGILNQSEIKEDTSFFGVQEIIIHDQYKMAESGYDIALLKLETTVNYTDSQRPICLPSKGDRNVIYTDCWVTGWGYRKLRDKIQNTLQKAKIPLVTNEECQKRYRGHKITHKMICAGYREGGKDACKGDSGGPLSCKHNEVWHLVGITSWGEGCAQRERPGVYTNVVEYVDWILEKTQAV
Sequence of Factor XIa (P03951 19-387 partner): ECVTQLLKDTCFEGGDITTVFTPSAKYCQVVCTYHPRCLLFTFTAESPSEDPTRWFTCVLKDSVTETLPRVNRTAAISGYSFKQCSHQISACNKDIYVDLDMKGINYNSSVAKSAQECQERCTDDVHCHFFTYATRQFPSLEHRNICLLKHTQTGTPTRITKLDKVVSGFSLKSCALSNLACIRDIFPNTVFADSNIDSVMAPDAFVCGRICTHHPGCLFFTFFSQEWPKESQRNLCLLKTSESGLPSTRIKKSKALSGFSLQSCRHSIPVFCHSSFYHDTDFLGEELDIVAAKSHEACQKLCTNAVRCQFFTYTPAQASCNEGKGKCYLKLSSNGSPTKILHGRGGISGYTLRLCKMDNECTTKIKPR
Sequence of human plasma kallikrein (P03952 391-638): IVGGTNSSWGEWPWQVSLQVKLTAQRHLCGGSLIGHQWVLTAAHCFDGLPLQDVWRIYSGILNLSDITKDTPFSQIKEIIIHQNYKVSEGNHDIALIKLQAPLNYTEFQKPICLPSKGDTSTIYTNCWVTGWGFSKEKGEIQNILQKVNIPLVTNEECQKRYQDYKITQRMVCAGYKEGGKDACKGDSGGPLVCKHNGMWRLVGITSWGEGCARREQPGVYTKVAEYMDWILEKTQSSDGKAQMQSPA
Sequence of human plasma kallikrein (P03952 20-390 partner): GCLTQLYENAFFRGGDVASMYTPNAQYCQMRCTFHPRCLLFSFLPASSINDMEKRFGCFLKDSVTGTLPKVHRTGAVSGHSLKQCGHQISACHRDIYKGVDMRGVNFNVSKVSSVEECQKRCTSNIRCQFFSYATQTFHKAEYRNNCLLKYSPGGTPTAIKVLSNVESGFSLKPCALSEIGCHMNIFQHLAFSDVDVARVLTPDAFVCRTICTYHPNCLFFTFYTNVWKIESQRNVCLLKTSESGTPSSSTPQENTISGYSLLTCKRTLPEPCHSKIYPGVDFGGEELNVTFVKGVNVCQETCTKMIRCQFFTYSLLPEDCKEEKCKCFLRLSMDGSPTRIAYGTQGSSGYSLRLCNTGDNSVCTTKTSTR

Compound	IC50 [1, 3] [nM]	IC50 [2, 4] [µM]	IC50 [1, 5] [nM]	IC50 ([2]; μM, kinetic reads) [µM]
O=C1C=C(c2c(C(F)F)ccc(Cl)c2F)C[C@H]2CC[C@@H](c3nc(F)c(-c4ccnc(CO)c4F)[nH]3)N12 [Example 27, (3S,8aR)-7-(3-Chloro-6-(difluoromethyl)-2-fluorophenyl)-3-(4-fluoro-5-(3-fluoro-2-(hydroxymethyl)pyridin-4-yl)-1H-imidazol-2-yl)-2,3,8,8a-tetrahydroindolizin-5(1H)-one]	> 100	0.118		
NC(=O)c1ccc(-c2c[nH]c([C@@H]3CC[C@@H]4CC(c5c(-n6cc(C(F)(F)F)nn6)ccc(Cl)c5F)=CC(=O)N43)n2)s1 [Example 220, 5-(2-((3S,8aR)-7-(3-Chloro-2-fluoro-6-(4-(trifluoromethyl)-1H-1,2,3-triazol-1-yl)phenyl)-5-oxo-1,2,3,5,8,8a-hexahydroindolizin-3-yl)-1H imidazol-4-yl)thiophene-2-carboxamide]	5	0.0097		
NC(=O)c1cc(-c2c[nH]c([C@@H]3CCC4CC(c5c(-n6cnnn6)ccc(Cl)c5F)=CC(=O)N43)n2)cs1 (stereo partly drawn) [Example 219, 4-(2-((3S)-7-(3-Chloro-2-fluoro-6-(1H-tetrazol-1-yl)phenyl)-5-oxo-1,2,3,5,8,8a-hexahydroindolizin-3-yl)-1H-imidazol-4-yl)thiophene-2-carboxamide]	2.1	0.0019		
[2H]c1cc(Cl)cc(C2=CC(=O)N3[C@H](CC[C@@H]3c3ncc(-c4ccc(N)nc4F)[nH]3)C2)c1-n1cnnn1 (single isomer, unassigned) [Example 121]		0.0169	0.7	
[2H]c1cc(-c2cnc([C@@H]3CC[C@@H]4CC(c5c(-n6cnnn6)ccc(Cl)c5F)=CC(=O)N43)[nH]2)c(F)nc1N [Example 147, (3S,8aR)-3-[5-(6-amino-5-deuterio-2-fluoro-3-pyridyl)-1H-imidazol-2-yl]-7-[3-chloro-2-fluoro-6-(tetrazol-1-yl)phenyl]-2,3,8,8a-tetrahydro-1H-indolizin-5-one]	0.5	0.0078		
O=C1C=C(c2c(-n3cnnn3)ccc(Cl)c2F)C[C@H]2CC[C@@H](c3ncc(-c4cnc5[nH]ccc5c4)[nH]3)N12 [Example 24, (3S,8aR)-3-(5-(1H-pyrrolo[2,3-b]pyridin-5-yl)-1H-imidazol-2-yl)-7-(3-chloro-2-fluoro-6-(1H-tetrazol-1-yl)phenyl)-2,3,8,8a-tetrahydroindolizin-5(1H)-one]	74.4	0.092		
COc1n[nH]cc1-c1cnc([C@@H]2CC[C@@H]3CC(c4c(-n5cnnn5)ccc(Cl)c4F)=CC(=O)N32)[nH]1 [Example 227, (3S,8aR)-7-(3-chloro-2-fluoro-6-(1H-tetrazol-1-yl)phenyl)-3-(5-(3-methoxy-1H-pyrazol-4-yl)-1H-imidazol-2-yl)-2,3,8,8a-tetrahydroindolizin-5(1H)-one]	3.5	0.0114		
O=C(O)c1ccc(-c2cnc([C@@H]3CCC4CC(c5c(-n6cc(Cl)nn6)ccc(Cl)c5F)=CC(=O)N43)[nH]2)s1 (stereo partly drawn) [Example 193, 5-(2-((3S)-7-(3-chloro-6-(4-chloro-1H-1,2,3-triazol-1-yl)-2-fluorophenyl)-5-oxo-1,2,3,5,8,8a-hexahydroindolizin-3-yl)-1H-imidazol-4-yl)thiophene-2-carboxylic acid]	0.4	0.0143		
O=C(O)c1sc(-c2cnc([C@@H]3CC[C@@H]4CC(c5c(-n6cc(C(F)(F)F)nn6)ccc(Cl)c5F)=CC(=O)N43)[nH]2)cc1F (single isomer, unassigned) [Example 195, 5-(2-((3*S,8aR)-7-(3-chloro-2-fluoro-6-(4-(trifluoromethyl)-1H-1,2,3-triazol-1-yl)phenyl)-5-oxo-1,2,3,5,8,8a-hexahydroindolizin-3-yl)-1H-imidazol-yl)-3-fluorothiophene-2-carboxylic acid]	0.5	0.0221		
NC(=O)c1ccc(-c2cnc([C@@H]3CC[C@@H]4CC(c5c(-n6cc(C(F)(F)F)nn6)ccc(Cl)c5F)=CC(=O)N43)[nH]2)cn1 (single isomer, unassigned) [Example 212]	20.5	0.0909		
O=C1C=C(c2c(-n3cc(C(F)(F)F)nn3)ccc(Cl)c2F)C[C@H]2CC[C@@H](c3ncc(-c4ccc(CO)nc4Cl)[nH]3)N12 [Example 223, (3S,8aR)-7-(3-Chloro-2-fluoro-6-(4-(trifluoromethyl)-1H-1,2,3-triazol-1-yl)phenyl)-3-(5-(2-chloro-6-(hydroxymethyl)pyridin-3-yl)-1H-imidazol-2-yl)-2,3,8,8a-tetrahydroindolizin-5(1H)-one]	15.9	0.138		
O=C1C=C(c2c(-n3cnnn3)ccc(Cl)c2F)C[C@H]2CC[C@@H](c3nc(F)c(-c4ccnc(-n5nccn5)c4)[nH]3)N12 [Example 87, (3S,8aR)-7-[3-chloro-2-fluoro-6-(tetrazol-1-yl)phenyl]-3-[4-fluoro-5-[2-(triazol-2-yl)-4-pyridyl]-1H-imidazol-2-yl]-2,3,8,8a-tetrahydro-1H-indolizin-5-one]	0.9	0.0016		
Nc1ccnn1-c1nccc(-c2c[nH]c([C@@H]3CC[C@@H]4CC(c5c(-n6cnnn6)ccc(Cl)c5F)=CC(=O)N43)n2)c1F [Example 68]	30	0.058		
CC(O)COc1nccc(-c2cnc([C@@H]3CC[C@H]4CC(c5c(-n6cnnn6)ccc(Cl)c5F)=CC(=O)N43)[nH]2)c1F (single isomer, unassigned) [Example 29]	57.9	0.307		
CC(C)(O)COc1nccc(-c2c[nH]c([C@@H]3CC[C@@H]4CC(c5c(-n6cnnn6)ccc(Cl)c5F)=CC(=O)N43)n2)c1F [Example 190]	1.2	0.0094		

The next lines start with the values.

IC50 [1, 3] [nM]	IC50 [2, 4] [µM]	IC50 [1, 5] [nM]	IC50 ([2]; μM, kinetic reads) [µM]	Compound
	0.342	78.7		O=C1C=C(c2c(-n3cnnn3)ccc(Cl)c2F)C[C@@H]2CC[C@@H](c3ncc(-c4cc[n+]([O-])cc4)[nH]3)N12 (relative stereo) [Example 321, 4-(2-((3S,8aS)-7-(3-Chloro-2-fluoro-6-(1H-tetrazol-1-yl)phenyl)-5-oxo-1,2,3,5,8,8a-hexahydroindolizin-3-yl)-1H-imidazol-5-yl)pyridine 1-oxide]
1.3	0.0038			O=C1C=C(c2c(-n3cnnn3)ccc(Cl)c2F)C[C@H]2CC[C@@H](c3ncc(-c4ccnc5ccsc45)[nH]3)N12 [Example 387, (3S,8aR)-7-(3-chloro-2-fluoro-6-(1H-tetrazol-1-yl)phenyl)-3-(5-(thieno[3,2-b]pyridin-7-yl)-1H-imidazol-2-yl)-2,3,8,8a-tetrahydroindolizin-5(1H)-one]
	0.0007	0.2		NC(=O)c1ccc(-c2cnc([C@@H]3CC[C@@H]4CC(c5c(-n6cnnn6)ccc(Cl)c5F)=CC(=O)N43)[nH]2)s1 (relative stereo) [Example 238, 5-(2-((3*S,8aR)-7-(3-Chloro-2-fluoro-6-(1H-tetrazol-1-yl)phenyl)-5-oxo-1,2,3,5,8,8a-hexahydroindolizin-3-yl)-1H-imidazol-5-yl)thiophene-2-carboxamide]
	0.0118	0.5		CC(=O)Nc1ccccc1-c1cnc([C@@H]2CC[C@H]3CC(c4c(-n5cnnn5)ccc(Cl)c4F)=CC(=O)N32)[nH]1 (relative stereo) [Example 306, N-(2-(24(3S,8aS*)-7-(3-Chloro-2-fluoro-6-(1H-tetrazol-1-yl)phenyl)-5-oxo-1,2,3,5,8,8a-hexahydroindolizin-3-yl)-1H-imidazol-4-yl)phenyl)acetamide]
5.3	0.0129			COc1ccccc1-c1c[nH]c([C@@H]2CCC3CC(c4c(-n5cnnn5)ccc(Cl)c4F)=CC(=O)N32)n1 (stereo partly drawn) [Example 317, (3S)-7-(3-Chloro-2-fluoro-6-(1H-tetrazol-1-yl)phenyl)-3-(4-(2-methoxyphenyl)-1H-imidazol-2-yl)-2,3,8,8a-tetrahydroindolizin-5(1H)-one]
0.6	0.0012			COc1ccc(-c2c[nH]c([C@@H]3CCC4CC(c5c(-n6cnnn6)ccc(Cl)c5F)=CC(=O)N43)n2)c(NC(=O)C2CC2)c1 (stereo partly drawn) [Example 276, N-(2-(2-((3S)-7-(3-Chloro-2-fluoro-6-(1H-tetrazol-1-yl)phenyl)-5-oxo-1,2,3,5,8,8a-hexahydroindolizin-3-yl)-1H-imidazol-4-yl)-5-methoxyphenyl)cyclopropanecarboxamide]
	0.009	1.2		CNc1ccc(-c2cnc([C@@H]3CC[C@@H]4CC(c5c(-n6cnnn6)ccc(Cl)c5F)=CC(=O)N43)[nH]2)c(F)n1 (relative stereo) [Example 282, (3S,8aR)-7-(3-Chloro-2-fluoro-6-(1H-tetrazol-1-yl)phenyl)-3-(5-(2-fluoro-6-(methylamino)pyridin-3-yl)-1H-imidazol-2-yl)-2,3,8,8a-tetrahydroindolizin-5(1H)-one]
211			7.3	Cn1ccnc1-c1c[nH]c([C@@H]2CCC3CC(c4c(-n5cnnn5)ccc(Cl)c4F)=CC(=O)N32)n1 (stereo partly drawn) [Example 334, (3S)-7-(3-chloro-2-Fluoro-6-(1H-tetrazol-1-yl)phenyl)-3-(1-methyl-1H,1′H-[2,4′-biimidazol]-2′-yl)-2,3,8,8a-tetrahydroindolizin-5(1H)-one]
